Reference: patent publication US8778923B2, “GLP-1 receptor modulators” (Receptos, Inc., priority 2011, dated 2014)

Biological target: T1, GLP-1R (Homo sapiens, UniProt P43220)
T1 construct: host or cells: CRE-bla CHO-K1
Assay: EC20 GLP-1(9-36) PAM cAMP assay: dose response of compound in the presence of fixed concentration of GLP-1(9-36)
Assay type: cell-based
Details: GLP-1R CRE-bla CHO-K1 cells, compound dose response in presence of fixed concentration of GLP-1(9-36)
Outline: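 Positive allosteric modulation read as cAMP rise: 12-point compound titration combined with a fixed EC20 level of GLP-1(9-36) on GLP-1R CHO-K1 cells, IBMX present, 30 min at 37 °C. Luminescent HitHunter signal converted to cAMP; nonlinear fit gave EC50 and Emax.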

T1 sequence (P43220 24-463): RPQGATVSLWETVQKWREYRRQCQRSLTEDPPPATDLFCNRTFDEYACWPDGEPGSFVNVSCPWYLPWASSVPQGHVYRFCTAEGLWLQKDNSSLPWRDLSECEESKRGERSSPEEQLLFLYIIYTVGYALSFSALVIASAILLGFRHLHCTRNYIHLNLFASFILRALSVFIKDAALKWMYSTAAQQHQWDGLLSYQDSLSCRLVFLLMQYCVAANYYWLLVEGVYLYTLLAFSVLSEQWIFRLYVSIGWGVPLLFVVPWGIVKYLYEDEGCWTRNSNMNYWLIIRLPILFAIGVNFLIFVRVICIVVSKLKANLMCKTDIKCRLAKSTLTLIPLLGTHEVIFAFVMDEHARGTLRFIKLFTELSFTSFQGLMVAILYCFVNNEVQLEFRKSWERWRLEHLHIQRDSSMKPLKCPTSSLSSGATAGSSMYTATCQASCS
T1 sequence (P01275 100-127 partner limits assumed): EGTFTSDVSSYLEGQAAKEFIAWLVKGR

Row | SMILES | EC50
1 | CCCCCCCOc1ccc(-c2cnc(-c3ccc(C[C@H](NC(=O)c4ccc(O)cc4)C(=O)O)cc3)nc2)cc1 [Compound 114, (S)-3-(4-(5-(4-(heptyloxy)phenyl)pyrimidin-2-yl)phenyl)-2-(4-hydroxybenzamido)propanoic acid] | 800 to 2500 nM
2 | CCCCCCCOc1ccc(-c2cnc(-c3ccc(C[C@H](NC(=O)c4ccc(C(N)=O)cc4)C(=O)O)cc3)nc2)cc1 [Compound 115] | 800 to 2500 nM
3 | CCCCCCCOc1ccc(-c2cnc(-c3ccc(C[C@H](NC(=O)c4c(Cl)ccc(F)c4Cl)C(=O)O)cc3)nc2)cc1 [Compound 116] | 800 to 2500 nM
4 | CCCCCCCOc1ccc(-c2cnc(-c3ccc(C[C@H](NC(=O)c4ccc(C)c(C)c4)C(=O)O)cc3)nc2)cc1 [Compound 117] | < 800 nM
5 | CCCCCCCOc1ccc(-c2cnc(-c3ccc(C[C@H](NC(=O)c4ccc(OC)c(C)c4)C(=O)O)cc3)nc2)cc1 [Compound 118] | < 800 nM
6 | CCCCCCCOc1ccc(-c2cnc(-c3ccc(C[C@H](NC(=O)c4ccccc4C)C(=O)O)cc3)nc2)cc1 [Compound 119] | < 800 nM
7 | CCCCCCCOc1ccc(-c2cnc(-c3ccc(C[C@H](NC(=O)c4ccc(OC(F)(F)F)cc4)C(=O)O)cc3)nc2)cc1 [Compound 120] | 800 to 2500 nM
8 | CCCCCCCOc1ccc(-c2cnc(-c3ccc(C[C@H](NC(=O)c4ccc(OCC(C)C)cc4)C(=O)O)cc3)nc2)cc1 [Compound 121] | 800 to 2500 nM
9 | CCCCCCCOc1ccc(-c2cnc(-c3ccc(C[C@H](NC(=O)c4ccc(S(=O)(=O)C(C)C)cc4)C(=O)O)cc3)nc2)cc1 [Compound 122] | 800 to 2500 nM
10 | CCCCCCCOc1ccc(-c2cnc(-c3ccc(C[C@H](NC(=O)c4ccc(S(C)(=O)=O)cc4Cl)C(=O)O)cc3)nc2)cc1 [Compound 123] | 800 to 2500 nM
11 | CCCCCCCOc1ccc(-c2cnc(-c3ccc(C[C@H](NC(=O)c4ccc(NCCCC)cc4)C(=O)O)cc3)nc2)cc1 [Compound 124] | 800 to 2500 nM
12 | CCCCCCCOc1ccc(-c2cnc(-c3ccc(C[C@H](NC(=O)c4ccc(OC(C)(C)C)cc4)C(=O)O)cc3)nc2)cc1 [Compound 125] | 800 to 2500 nM
13 | CCCCCCCOc1ccc(-c2cnc(-c3ccc(C[C@H](NC(=O)c4ccc(CO)cc4)C(=O)O)cc3)nc2)cc1 [Compound 126] | 800 to 2500 nM
14 | CCCCCCCOc1ccc(-c2cnc(-c3ccc(C[C@H](NC(=O)c4ccc(S(=O)(=O)CC)cc4)C(=O)O)cc3)nc2)cc1 [Compound 127] | 800 to 2500 nM
15 | CCCCCCCOc1ccc(-c2cnc(-c3ccc(C[C@H](NC(=O)c4ccc(C(=O)N(C)C)cc4)C(=O)O)cc3)nc2)cc1 [Compound 128] | 800 to 2500 nM
16 | CCCCCCCOc1ccc(-c2cnc(-c3ccc(C[C@H](NC(=O)c4ccc(OCCCC)cc4)C(=O)O)cc3)nc2)cc1 [Compound 129] | 800 to 2500 nM
17 | CCCCCCCOc1ccc(-c2cnc(-c3ccc(C[C@H](NC(=O)c4cc(C(C)C)no4)C(=O)O)cc3)nc2)cc1 [Compound 130] | < 800 nM
18 | CCCCCCCOc1ccc(-c2cnc(-c3ccc(C[C@H](NC(=O)c4cnc(C(C)C)nc4)C(=O)O)cc3)nc2)cc1 [Compound 131] | 800 to 2500 nM
19 | CCCCCCCOc1ccc(-c2cnc(-c3ccc(C[C@H](NC(=O)c4coc(C(C)C)n4)C(=O)O)cc3)nc2)cc1 [Compound 132] | 800 to 2500 nM
20 | CCCCCCCOc1ccc(-c2cnc(-c3ccc(C[C@H](NC(=O)c4ccc(C(C)(C)C)o4)C(=O)O)cc3)nc2)cc1 [Compound 133] | 800 to 2500 nM
21 | CCCCCCCOc1ccc(-c2cnc(-c3ccc(C[C@H](NC(=O)c4ccc(CN(C)C)cc4)C(=O)O)cc3)nc2)cc1 [Compound 134] | 800 to 2500 nM
22 | CCCCCCCOc1ccc(-c2cnc(-c3ccc(C[C@H](NC(=O)c4cc(C(C)C)on4)C(=O)O)cc3)nc2)cc1 [Compound 135] | 800 to 2500 nM
23 | CCCCCCCOc1ccc(-c2cnc(-c3ccc(C[C@H](NC(=O)c4cc(C(C)(C)C)n[nH]4)C(=O)O)cc3)nc2)cc1 [Compound 136] | 5000 to 10000 nM

Row | SMILES | EC50
24 | CCCCCCCOc1ccc(-c2cnc(-c3ccc(C[C@H](NC(=O)c4ccc(CC)s4)C(=O)O)cc3)nc2)cc1 [Compound 137] | 800 to 2500 nM
25 | CCCCCCCOc1ccc(-c2cnc(-c3ccc(C[C@H](NC(=O)c4ccc(CC)o4)C(=O)O)cc3)nc2)cc1 [Compound 138] | 800 to 2500 nM
26 | CCCCCCCOc1ccc(-c2cnc(-c3ccc(C[C@H](NC(=O)c4cnn(C(C)C)c4)C(=O)O)cc3)nc2)cc1 [Compound 139] | 800 to 2500 nM
27 | CCCCCCCOc1ccc(-c2cnc(-c3ccc(C[C@H](NC(=O)c4ccc(C(F)(F)F)s4)C(=O)O)cc3)nc2)cc1 [Compound 140] | 2500 to 5000 nM
28 | CCCCCCCOc1ccc(-c2cnc(-c3ccc(C[C@H](NC(=O)c4nnc(C(C)(C)C)s4)C(=O)O)cc3)nc2)cc1 [Compound 141] | 800 to 2500 nM
29 | CCCCCCCOc1ccc(-c2cnc(-c3ccc(C[C@H](NC(=O)c4ncc(C(C)(C)C)s4)C(=O)O)cc3)nc2)cc1 [Compound 142] | < 800 nM
30 | CCCCCCCOc1ccc(-c2cnc(-c3ccc(C[C@H](NC(=O)c4cnn(C(C)(C)C)c4)C(=O)O)cc3)nc2)cc1 [Compound 143] | < 800 nM
31 | CCCCCCCOc1ccc(-c2cnc(-c3ccc(C[C@H](NC(=O)c4ccn(C(C)C)n4)C(=O)O)cc3)nc2)cc1 [Compound 144] | 800 to 2500 nM
32 | CCCCCCCOc1ccc(-c2cnc(-c3ccc(C[C@H](NC(=O)c4cc(C)c(CC)s4)C(=O)O)cc3)nc2)cc1 [Compound 145] | 800 to 2500 nM
33 | CCCCCCCOc1ccc(-c2cnc(-c3ccc(C[C@H](NC(=O)c4csc(C(C)C)c4)C(=O)O)cc3)nc2)cc1 [Compound 146] | 2500 to 5000 nM
34 | CCCCCCCOc1ccc(-c2cnc(-c3ccc(C[C@H](NC(=O)c4ccc(CCC)s4)C(=O)O)cc3)nc2)cc1 [Compound 147] | 2500 to 5000 nM
35 | CCCCCCCOc1ccc(-c2cnc(-c3ccc(C[C@H](NC(=O)c4cnc(C(C)C)s4)C(=O)O)cc3)nc2)cc1 [Compound 148] | 800 to 2500 nM
36 | CCCCCCCOc1ccc(-c2cnc(-c3ccc(C[C@H](NC(=O)c4cc5c(s4)CCCC5)C(=O)O)cc3)nc2)cc1 [Compound 149] | 800 to 2500 nM
37 | CCCCCCCOc1ccc(-c2cnc(-c3ccc(C[C@H](NC(=O)c4cc5c(s4)CCC5)C(=O)O)cc3)nc2)cc1 [Compound 150] | 800 to 2500 nM
38 | CCCCCCCOc1ccc(-c2cnc(-c3ccc(C[C@H](NC(=O)c4cc5c(s4)CCC(C)C5)C(=O)O)cc3)nc2)cc1 (stereo partly drawn) [Compound 151] | 800 to 2500 nM
39 | CCCCCCCOc1ccc(-c2cnc(-c3ccc(C[C@H](NC(=O)c4ccc(C(C)C)s4)C(=O)O)cc3)nc2)cc1 [Compound 152] | 800 to 2500 nM
40 | CCCCCCCOc1ccc(-c2cnc(-c3ccc(C[C@H](NC(=O)c4ccc(CC(C)C)s4)C(=O)O)cc3)nc2)cc1 [Compound 153] | 800 to 2500 nM
41 | CCCCCCCOc1ccc(-c2cnc(-c3ccc(C[C@H](NC(=O)c4ccc(C(C)=O)s4)C(=O)O)cc3)nc2)cc1 [Compound 154] | < 800 nM
42 | CCCCCCCOc1ccc(-c2cnc(-c3ccc(C[C@H](NC(=O)Cc4cc5ccccc5s4)C(=O)O)cc3)nc2)cc1 [Compound 155] | 800 to 2500 nM
43 | CCCCCCCOc1ccc(-c2cnc(-c3ccc(C[C@H](NC(=O)c4cc5ccccc5s4)C(=O)O)cc3)nc2)cc1 [Compound 156] | 800 to 2500 nM
44 | CCCCCCCOc1ccc(-c2cnc(-c3ccc(C[C@H](NC(=O)c4cc5ccc(C)cc5s4)C(=O)O)cc3)nc2)cc1 [Compound 157] | 800 to 2500 nM
45 | CCCCCCCOc1ccc(-c2cnc(-c3ccc(C[C@H](NC(=O)c4cc5cccnc5s4)C(=O)O)cc3)nc2)cc1 [Compound 158] | < 800 nM
